From US20070066580A1, “Novel aldosterone antagonists and uses thereof” (Recordati Ireland Limited, priority 2005, published 2007)

How the values were obtained:
[1] = target: T1, ligand binding domain of the human mineralocorticoid receptor (hMR LBD) (Homo sapiens, UniProt P08235); test: Mineralocorticoid receptor (MR) in vitro competitive binding assay, [3H]aldosterone displacement; conditions: IR^TOTAL = sum of IR^AR/MR, IR^ER/MR, IR^GR/MR, IR^PR/MR
T1 construct: made in house; host or cells: Sf9 insect cells (baculovirus, pFastBac)
T1 sequence (P08235 729-984): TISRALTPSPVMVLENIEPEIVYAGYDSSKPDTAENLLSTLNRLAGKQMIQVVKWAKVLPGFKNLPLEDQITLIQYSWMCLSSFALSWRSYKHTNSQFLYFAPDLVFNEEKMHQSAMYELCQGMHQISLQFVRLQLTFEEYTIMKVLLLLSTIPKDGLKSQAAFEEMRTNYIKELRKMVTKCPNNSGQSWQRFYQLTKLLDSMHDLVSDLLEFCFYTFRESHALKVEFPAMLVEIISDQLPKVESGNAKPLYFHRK
Protocol: Mineralocorticoid receptor (MR) binding assay: Spodoptera furgiperda (Sf9) insect cells (ATCC accession number CRL-1711) were maintained in culture in EX-CELL™ 420 serum free medium (JRH Biosciences, Inc.) at 27° C.
A recombinant baculovirus containing nucleotide sequences encoding the ligand binding domain of the human mineralocorticoid receptor (hMR) cloned into the pFastBac™ vector was generated using the Bac-to-Bac® Baculovirus Expression System Kit (Invitrogen) following the manufacturer's instructions. This recombinant baculovirus contains nucleotides 2401 through 3168 (SEQ ID NO: 13) of hMR, providing for expression of the ligand binding domain (LBD), amino acid residues 729-984 (SEQ ID NO: 14), of hMR (hMR LBD). Cultured Sf9 insect cells were transfected with this recombinant baculovirus following the manufacturer's instructions.
For the binding assay, a crude lysate of the hMR LBD-expressing insect cells was prepared. The crude lysate was diluted 12.5-fold with binding buffer (20 mM Tris-HCl pH 7.4, 1 mM EDTA, 1 mM dithiothreitol, 20 mM sodium tungstate, 50 mM KCl and 10% glycerol).
For the negative control sample, the diluted lysate was incubated with a 10 nM final concentration of the radioligand [1,2,6,7-^3H] aldosterone (Amersham Biosciences, catalogue # 434) for 3.5 h at 4° C. For test compounds and the positive control sample, the diluted lysate was incubated with various concentrations of test compound or with a 20 μM final concentration of spironolactone (Sigma, S-3378) as a reference compound for 45 min on ice, and was then incubated with a 10 nM final concentration of [1,2,6,7-^3H] aldosterone for 3.5 h at 4° C.
Using a CellHarvester (PerkinElmer, formerly Packard Biosciences), receptor/ligand complexes were retained on 96-well GF/B filters (PerkinElmer, formerly Packard Biosciences) while free radioligand passed through the filters. Scintillation counting of GF/B filter plates was performed using a TopCount NXT (PerkinElmer, formerly Packard Biosciences) to quantitate the amount of [1,2,6,7-^3H] aldosterone bound to the hMR LBD.
The IC50 of a test compound was determined from the concentration of test compound giving half-maximal displacement as obtained by nonlinear least-squares curve fitting to a one-site binding sigmoidal model using Prism 3.0 (Graph Pad Software, Inc., San Diego, US). The calculated IC50 values represent the average values calculated from the results of 1-3 experiments carried out in duplicate.
IC50 and inhibitory ratio calculations: To provide a measure of the potency of each test compound as an antagonist of MR, the IC50 of each test compound (IC50^Test) for ligand binding to MR and the IC50 of the known MR antagonists eplerenone (IC50^Ep) and spironolactone (IC50^Sp) for ligand binding to MR were used to calculate an IC50 ratio (RIC50) according to the following equations: RIC50^Ep/Test=IC50^Ep/IC50^Test and RIC50^Sp/Test=IC50^Sp/IC50^Test.
These individual inhibitory ratios were used to calculate a total inhibitory ratio (IR^TOTAL) according to the following equation: IR^TOTAL=IR^AR/MR+IR^ER/MR+IR^GR/MR+IR^PR/MR. B. Results and Discussion

[2] = target: T2, GAL4 DBD-hMR LBD fusion protein (Homo sapiens, UniProt P08235); test: Cell-based luciferase assay, agonist mode (CV-1 cells); conditions: 10 μM of compound
T2 construct: expressed in transfected cells; host or cells: CV-1 cells (African green monkey kidney), transient co-transfection with pCMX-GAL4-based vector and Galp3TKLuc reporter
Excerpt: GAL4 DBD-hMR LBD fusion protein expression vector: A pCMX-GAL4-based vector was used for the expression of a fusion protein composed of the amino acids 1-147 of the DNA binding domain of Saccharomyces cerevisiae GAL4 (GAL4 DBD) (SEQ ID NO: 16) and amino acid residues 729-984 of the ligand binding domain of human mineralocorticoid receptor (hMR LBD) (SEQ ID NO: 14). The expression vector contained an expression cassette of the nucleotide sequence for the GAL4 DBD (See SEQ ID NO: 19) ligated to nucleotides 2401 through 3168 of the human mineralocorticoid (hMR) receptor (SEQ ID NO: 13).
In vitro cell culture: CV-1 cells (African green monkey kidney cell line, ATCC accession number CCL-70) were maintained in culture in 90% DMEM medium supplemented by 9% FCS and 1% Penicillin-Streptomycin-L-Glutamine at 37° C. under 8.5% CO2.
These cells were transiently co-transfected with the GAL4 DBD-hMR LBD fusion protein expression vector and the Galp3TKLuc reporter gene vector using the FuGENE 6 Transfection Reagent (Roche) according to the manufacturer's instructions.
Agonist assay: As a positive control, aldosterone (Acros Organics, catalogue # 215360050) was used at a concentration of 100 nM. The negative control sample was 90% DMEM medium supplemented by 9% charcoal-treated FCS and 1% Penicillin-Streptomycin-L-Glutamine containing 0.2% DMSO plus 0.02% ethanol. Positive control, negative control, or 10 μM final concentration of test compound was added to the cells and incubated for 24 hours at 37° C. under 8.5% CO2 before the Luciferase substrate (Promega, catalogue number #E2620) was added. After an incubation period of 5 min at RT, luminescence signals were read on a microplate reader (Molecular Devices/LJL Biosystems). Negative and positive controls were defined as 0% and 100% agonism, respectively. The agonistic potency of test compounds is given in % and was normalized to the positive and negative controls.

T2 sequence (P08235 with tags, fused parts or gaps limits assumed): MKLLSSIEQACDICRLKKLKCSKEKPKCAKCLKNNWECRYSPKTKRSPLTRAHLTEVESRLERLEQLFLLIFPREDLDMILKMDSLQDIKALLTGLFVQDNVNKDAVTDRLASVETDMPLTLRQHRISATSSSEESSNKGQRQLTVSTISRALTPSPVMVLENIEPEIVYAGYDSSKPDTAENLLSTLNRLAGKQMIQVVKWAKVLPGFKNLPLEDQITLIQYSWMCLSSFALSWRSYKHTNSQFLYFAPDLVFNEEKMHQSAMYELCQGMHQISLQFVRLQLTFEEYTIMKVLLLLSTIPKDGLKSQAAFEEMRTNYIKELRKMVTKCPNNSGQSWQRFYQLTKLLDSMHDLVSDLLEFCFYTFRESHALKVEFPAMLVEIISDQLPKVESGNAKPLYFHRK

Q: Which results are given for `CCS[C@@H]1CC2=CC(=O)CC[C@]2(C)C2=CC[C@@]3(C)C(CC[C@@]34CCC(=O)O4)C21` (stereo partly drawn) [Example 13]?
A: IR^TOTAL compared with the IR^TOTAL for eplerenone [1]: at least an order of magnitude greater than the IR^TOTAL for eplerenone; IR^TOTAL compared with the IR^TOTAL for spironolactone [1]: at least an order of magnitude greater than the IR^TOTAL for spironolactone; potency for activation of MR relative to aldosterone [2]: at least three orders of magnitude less potent than aldosterone
